One assay has as its target hCB1-CHO-K1 membranes (Homo sapiens, UniProt P21554). Nature of the assay: CB-1 membrane binding assay ([3H] CP 55,940 displacement).
For another assay, the target named is T1, hCB2-HEK293 membranes (Homo sapiens, UniProt P34972).
T1 construct: expressed in transfected cells; host or cells: HEK293
Put plainly: CB-2 membrane binding assay ([3H] CP 55,940 displacement). To be noted: mean where tested more than once.

Assay [1] concerns the target T2, Human CB2R (Cannabinoid receptor 2) (Homo sapiens, UniProt P34972).
T2 construct: host or cells: HEK-293
Put plainly: CB-2 in vitro cAMP (HTRF) functional assay. Type of assay: cell-based. The following applies: mean where tested more than once. An excerpt: (§1) CB1 and CB2 receptors are Gi-coupled GPCR. Activation of CB1 and CB2 receptors results in a decrease in cAMP production. An inverse agonist of the CB1 or CB2 receptor results in the opposite effect, an increase of cAMP production. The principle of this assay is based on HTRF® technology (Homogeneous Time-Resolved Fluorescence). The method is a competitive immunoassay between native cAMP produced by cells and the cAMP labeled with the fluorophore d2. The tracer binding is quantified by a Mab anti-cAMP labeled with Eu3+ TBP-NHS Cryptate (supplied as part of the assay kit). The specific signal (i.e. energy transfer) is inversely proportional to the concentration of cAMP in the standard or sample.
(§2) Human CB1R (Cannabinoid receptor 1) was stably transfected in HEK-293 cells (DiscoveRx, cat: 93-0200C1). Human CB2R (Cannabinoid receptor 2) was stably transfected in HEK-293 cells (DiscoveRx, cat: 93-0201C1). Cell cultures were maintained in media: DMEM (Invitrogen Cat#12430-054) supplemented with 10% HI FBS (Invitrogen Cat#16140-071), 1% L-glutamine (Invitrogen Cat#25030-081), 0.2 mg/ml Hygromycin B (Invitrogen Cat#10687-010), 600 μg/mL G418 (Invitrogen Cat#10131-035), and 1× Penn/Strep (Invitrogen 15140-122). After cell expansion, aliquots were cryo-stored in media containing 5% DMSO (Pierce Cat#20684).
(§3) One day prior to experiments media was warmed to 37° C. and the cryo-stored cells were thawed in a 37° C. water bath. The cells were then added to media (10× volume) and the mixture was centrifuged at 1000 RPM for 5 min. The supernate was removed and the cells were re-suspended in media. A sample of the cell suspension was evaluated on a Cedex XS automated cell counter (Innovatis Systems) to determine viable cells/ml. Additional media was added to the cells to achieve a final cell density of 4E5 cells/mL. The cells were then plated into 384 well PDL white solid bottom plates (Greiner, Cat#781945) at 20 μL per well using a Multidrop (Thermo Scientific). Cells were removed from Row P (location of cAMP standards). Two columns of cells were plated into a clear bottom 384 well PDL coated plate (Greiner, Cat#781944) to view confluence the day of the assay. The cell plates were lidded and stored for 15 minutes in a hood, then transferred to an incubator (37° C., 5% CO2, 95% humidity) overnight.
(§4) DMSO was added to all wells of 384 well V bottom polystyrene plate (Greiner, Cat#781280) except to columns 1 and 13, rows O and P and wells M13-M23 and N13-N23. Test compounds (60 μL, 10 mM) were added to Column 1 and 13 (A1 through N1 and A13 through L13). Test compounds were serially diluted 1/3 by transferring and mixing 20 μl sample with 40 μL DMSO.
(§5) DMSO (40 μL) was added to wells of 384 well V bottom polystyrene plate: O2 through O11, M14 through M23, N14 through N23, and O14 through O23. AM630 (also known as [6-iodo-2-methyl-1-[2-(4-morpholinyl)ethyl]-1H-indol-3-yl](4-methoxyphenyl)-methanone, Cayman Chemical, Cat#10006974) (60 μL, 10 mM) was added to O1; and 1-(2,4-dichlorophenyl)-7-[(4-fluorophenyl)methylene]-4,5,6,7-tetrahydro-N-1-piperidinyl-1H-indazole-3-carboxamide (60 μL, 10 mM) was added to N13. The control was serially diluted 1/3 by transferring and mixing 20 μl sample with 40 μL DMSO. This process resulted 11 doses per control, 10 mM to […].
(§6) Cells plated the day prior to the assay in clear bottom plates were viewed on an inverse microscope to ensure confluency in the range of 60-75%. […]
Background: TR-FRET usually uses a lanthanide donor and a delayed reading to cut background.

The target of assay [2] is T3, Human CB1R (Cannabinoid receptor 1) (Homo sapiens, UniProt P21554).
T3 construct: host or cells: HEK-293
T3 sequence (P21554 whole entry): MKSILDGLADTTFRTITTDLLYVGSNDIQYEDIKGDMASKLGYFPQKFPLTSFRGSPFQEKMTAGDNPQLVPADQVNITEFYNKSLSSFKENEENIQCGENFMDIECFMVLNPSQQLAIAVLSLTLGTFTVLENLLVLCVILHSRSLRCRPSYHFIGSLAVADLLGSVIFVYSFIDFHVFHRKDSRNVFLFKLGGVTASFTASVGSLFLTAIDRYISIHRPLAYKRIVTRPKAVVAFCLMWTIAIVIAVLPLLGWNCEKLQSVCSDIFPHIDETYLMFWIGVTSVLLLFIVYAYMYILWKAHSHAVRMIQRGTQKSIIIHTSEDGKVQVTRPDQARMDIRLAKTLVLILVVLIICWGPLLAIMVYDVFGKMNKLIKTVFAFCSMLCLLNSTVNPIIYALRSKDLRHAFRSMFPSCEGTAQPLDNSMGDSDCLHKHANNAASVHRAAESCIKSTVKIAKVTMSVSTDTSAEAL
Put plainly: CB-1 in vitro cAMP (HTRF) functional assay. Type of assay: cell-based. To be noted: mean where tested more than once.
Excerpt: as §1, §2, §3, §4, §5, §6

A value given as a limit tells only on which side of the number the result lay.

Chain of hCB1-CHO-K1 membranes (P21554 whole entry): as above
T2 sequence (P34972 whole entry): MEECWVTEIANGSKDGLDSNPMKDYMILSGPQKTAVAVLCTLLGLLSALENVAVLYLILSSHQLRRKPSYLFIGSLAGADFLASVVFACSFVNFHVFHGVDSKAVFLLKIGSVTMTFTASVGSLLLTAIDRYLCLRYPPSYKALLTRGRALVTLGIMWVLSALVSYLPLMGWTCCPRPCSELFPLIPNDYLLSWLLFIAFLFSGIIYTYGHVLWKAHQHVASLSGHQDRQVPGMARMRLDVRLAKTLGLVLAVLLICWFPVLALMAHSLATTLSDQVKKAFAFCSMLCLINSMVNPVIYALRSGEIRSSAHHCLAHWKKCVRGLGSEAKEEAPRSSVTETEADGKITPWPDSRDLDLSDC
T1 sequence (P34972 whole entry): as above
Protocol for hCB1-CHO-K1 membranes: Into Greiner V bottom polypropylene plates, hCB1-CHO-K1 membranes (2 μg/well final concentration) in assay buffer (50 mM Tris-HCl pH 7.4, 5 mM MgCl2 and 0.5 mg/ml (0.05%) Ultra fatty acid free BSA) were dispensed. Membranes were purchased from Perkin Elmer. Test compounds were then added to each well and then [^3H] CP 55, 940 (0.4 nM final well concentration) in assay buffer (50 mM Tris-HCl pH 7.4, 5 mM MgCl2 and 0.5 mg/ml (0.05%) Ultra fatty acid free BSA) was added. Samples were mixed and incubated for 90 min at 30° C. in the Greiner V Bottom Polypropylene plate. After incubation, assay reagents were transferred to a blocked 384 well polypropylene filter plates. The binding reaction was stopped by filtration and washed seven times with ice cold rinse buffer. Filter plates were then dried overnight at room temperature. The next day, plate bottoms were sealed with plate tape and 15 μl MicroScint 20 was added to each well. Plates were incubated for 2 h and radioactivity was measured by Topcount.
Total Binding levels were achieved by combining membrane, DMSO, and [^3H]
Non-Specific Binding (NSB) levels were achieved by combining membrane, 10 μM final concentration WIN-55,212 (also known as (R)-(+)-[2,3-Dihydro-5-methyl-3[(4-morpholinyl)methyl]pyrrolo[1,2,3-de]-1,4-benzoxazinyl]-(1-naphthalenyl)methanone mesylate, Tocris Biosciences Cat#1038), and [^3H]
Non-specific binding (NSB=10 μM WIN-55,212+Membrane+[^3H] CP-55,940) was used as the negative control, while the Total Binding (TB=DMSO+Membrane+[^3H] CP-55,940) was used as the positive control.
IC50 data was calculated using raw CPM values. Curves were fitted individually from singlet 11 point dosing curves+1% DMSO Control. IC50 values were fit appropriately and calculated using the following equation:
Vmin, CPM at maximum inhibition; Vo, CPM at zero inhibition; IC50, inhibitor concentration at 50% inhibition; h, Hill coefficient.

The IC50 is the midpoint of a concentration-inhibition curve. High values mean a need for much substance, low ones inhibition by little substance. With `O=c1cc(CCc2cccc(Cl)c2)c2cc(C(O)(c3ccc(Cl)cc3)c3nccs3)ccc2[nH]1` (centres unmarked) [Compound 8, 4-(3-chlorophenethyl)-6-((4-chlorophenyl)(hydroxy)(thiazol-2-yl)methyl)quinolin-2(1H)-one], the 50% inhibitory concentration (IC50) on hCB1-CHO-K1 membranes was more than 2500 nM.
With `Cn1c(=O)cc(CCc2cccc(Cl)c2)c2cc(C(c3ccc(Cl)cc3)c3nccs3)ccc21` (centres unmarked) [Compound 9, 4-(3-chlorophenethyl)-6-((4-chlorophenyl)(thiazol-2-yl)methyl)-1-methylquinolin-2(1H)-one], at hCB1-CHO-K1 membranes, the IC50 was more than 2500 nM.
Same read-out and setting: to `O=c1cc(CCc2cccc(Cl)c2)c2cc(C(c3ccc(Cl)cc3)c3nccs3)ccc2[nH]1` (centres unmarked) [Compound 11, 4-(3-chlorophenethyl)-6-((4-chlorophenyl)(thiazol-2-yl)methyl)quinolin-2(1H)-one] belongs 332 nM.
Turning to `O=c1cc(/C=C/c2cccc(F)c2)c2cc(C(c3ccc(Cl)cc3)c3ccsc3)ccc2[nH]1` (centres unmarked) [Compound 16, 6-[(4-Chlorophenyl)(thiophen-3-yl)methyl]-4-[(E)-2-(3-fluorophenyl)ethenyl]quinolin-2(1H)-one], the values for the IC50 at hCB1-CHO-K1 membranes and on hCB2-HEK293 membranes were 22 nM and more than 5000 nM, respectively.
In the case of `O=c1cc(/C=C/c2ccc(C(F)(F)F)cc2)c2cc(C(c3ccc(Cl)cc3)c3cccs3)ccc2[nH]1` (centres unmarked) [Compound 19, 6-[(4-Chlorophenyl)(thiophen-2-yl)methyl]-4-{(E)-2-[4-(trifluoromethyl)phenyl]ethenyl} quinolin-2(1H)-one], the IC50 at hCB1-CHO-K1 membranes was 15.1 nM; at hCB2-HEK293 membranes it was more than 5000 nM.
As usually defined, the EC50 is the concentration at which the effect is half-maximal. A low value points to an effect from little substance. Regarding `O=C(O)c1ccc(Nc2cc(=O)[nH]c3ccc(C(c4ccc(Cl)cc4)c4ccc(Cl)cc4)cc23)cc1` [Compound 86, 4-({6-[Bis(4-chlorophenyl)methyl]-2-oxo-1,2-dihydroquinolin-4-yl}amino)benzoic acid], the EC50 in assay [1] and in assay [2] was more than 10000 nM in each case.
Consider `O=c1cc(Nc2ccc(C(F)(F)F)cc2)c2cc(C(c3ccc(Cl)cc3)c3ccc(Cl)cc3)cc(Br)c2[nH]1` [Compound 93], for which the EC50 in assay [1] was more than 10000 nM; in assay [2] it was 15 nM.
Regarding `O=C(O)CCN1CCC(Nc2cc(=O)[nH]c3ccc(C(c4ccc(Cl)cc4)c4ccc(Cl)cc4)cc23)CC1` [Compound 115, 3-[4-({6-[Bis(4-chlorophenyl)methyl]-2-oxo-1,2-dihydroquinolin-4-yl}amino)piperidin-1-yl]propanoic acid], the EC50 in assay [1] and in assay [2] was more than 10000 nM in each case.
As to `O=C(c1ccc(Nc2cc(=O)[nH]c3ccc(C(c4ccc(Cl)cc4)c4ccc(Cl)cc4)cc23)cc1F)N1CCCC1` [Compound 138], the EC50 in assay [1] came out at 750 nM; in assay [2] it was 227 nM.
Turning to `NCCCCNc1cc(C(c2ccc(Cl)cc2)c2ccc(Cl)cc2)cc2c(NC3CCN(S(=O)(=O)C(F)(F)F)CC3)cc(=O)[nH]c12` [Compound 141, 8-((4-aminobutyl)amino)-6-(bis(4-chlorophenyl)methyl)-4-((1-((trifluoromethyl)sulfonyl)piperidin-4-yl)amino)quinolin-2(1H)-one], in assay [1], the EC50 was more than 10000 nM.
In the case of `OC(c1ccc(Cl)cc1)(c1ccc(Cl)cc1)c1ccc2nccc(/C=C/c3ccccc3)c2c1` [Compound 501, (E)-bis(4-chlorophenyl)(4-styrylquinolin-6-yl)methanol], the IC50 on hCB1-CHO-K1 membranes worked out at 52.1 nM.
Compound `Clc1ccc(C(c2ccc(Cl)cc2)c2ccc3nccc(/C=C/c4ccccc4)c3c2)cc1` [Compound 503, (E)-6-(bis(4-chlorophenyl)methyl)-4-styrylquinoline] yielded an IC50 on hCB1-CHO-K1 membranes of 4.1 nM.
`COc1ccc(C(O)(c2ccc3nccc(/C=C/c4ccccc4)c3c2)c2nccs2)cc1` (centres unmarked) [Compound 504, (E)-(4-methoxyphenyl)(4-styrylquinolin-6-yl)(thiazol-2-yl)methanol] had a 50% inhibitory concentration (IC50) on hCB1-CHO-K1 membranes of 1870 nM.
On the same count and under the same terms, under `OC(c1ccc(Cl)cc1)(c1ccc2nccc(/C=C/c3ccccc3)c2c1)c1cccs1` (centres unmarked) [Compound 506, (4-Chlorophenyl){4-[(E)-2-phenylethenyl]quinolin-6-yl}thiophen-2-ylmethanol] stands 101 nM.
The same measure, in the same setting: under `OC(c1ccc(Cl)cc1)(c1ccsc1)c1ccc2nccc(/C=C/c3ccccc3)c2c1` (centres unmarked) [Compound 507, (4-Chlorophenyl){4-[(E)-2-phenylethenyl]quinolin-6-yl}thiophen-3-ylmethanol] stands 223 nM; under `Clc1ccc(C(c2ccc3nccc(/C=C/c4ccccc4)c3c2)c2cccs2)cc1` (centres unmarked) [Compound 508, 6-[(4-Chlorophenyl)(thiophen-2-yl)methyl]-4-[(E)-2-phenylethenyl]quinoline], 97.3 nM.
With `CCOC(=O)COc1cc(C(c2ccc(Cl)cc2)c2ccc(Cl)cc2)cc2c(NC3CCN(S(=O)(=O)C(F)(F)F)CC3)ccnc12` [Compound 544], the EC50 in assay [1] was found to be 3400 nM; in assay [2], 126 nM.
The compound `O=C(O)COc1cc(C(c2ccc(Cl)cc2)c2ccc(Cl)cc2)cc2c(NC3CCN(S(=O)(=O)C(F)(F)F)CC3)ccnc12` [Compound 545] yielded an EC50 in assay [2] of 4900 nM.
For `CCS(=O)(=O)N1CCC(Nc2cc(=O)[nH]c3ccc(C(c4ccc(Cl)cc4)c4ccc(Cl)cc4)cc23)CC1` [Compound #56, 6-(bis(4-chlorophenyl)methyl)-4-((1-(ethylsulfonyl)piperidin-4-yl)amino)quinolin-2(1H)-one], the EC50 in assay [1] is more than 10000 nM.
The same measure, in the same setting: to `O=c1cc(NC2CCN(c3ccccc3)CC2)c2cc(C(c3ccc(Cl)cc3)c3ccc(Cl)cc3)ccc2[nH]1` [Compound #60, 6-[bis(4-chlorophenyl)methyl]-4-[(1-phenylpiperidin-4-yl)amino]quinolin-2-ol] belongs more than 10000 nM.
For `O=c1cc(NCc2ccc(C(F)(F)F)nc2)c2cc(C(c3ccc(Cl)cc3)c3ccc(Cl)cc3)ccc2[nH]1` [Compound #70, 6-(bis(4-chlorophenyl)methyl)-4-(((6-(trifluoromethyl)pyridin-3-yl)methyl)amino)quinolin-2(1H)-one], the EC50 in assay [1] is more than 10000 nM.
Still for that read-out and setting: under `O=c1cc(NC2CCCCC2)c2cc(C(c3ccc(Cl)cc3)c3ccc(Cl)cc3)ccc2[nH]1` [Compound #71, 6-(bis(4-chlorophenyl)methyl)-4-(cyclohexylamino)quinolin-2(1H)-one] stands more than 10000 nM; under `O=c1cc(NC2CCN(CC(F)(F)F)CC2)c2cc(C(c3ccc(Cl)cc3)c3ccc(Cl)cc3)ccc2[nH]1` [Compound #77, 6-(bis(4-chlorophenyl)methyl)-4-((1-(2,2,2-trifluoroethyl)piperidin-4-yl)amino)quinolin-2(1H)-one], more than 10000 nM; under `O=c1cc(NC2CCN(S(=O)(=O)N3CCCC3)CC2)c2cc(C(c3ccc(Cl)cc3)c3ccc(Cl)cc3)ccc2[nH]1` [Compound #81, 6-(bis(4-chlorophenyl)methyl)-4-((1-(pyrrolidin-1-ylsulfonyl)piperidin-4-yl)amino)quinolin-2(1H)-one], more than 10000 nM.
Same read-out and setting: to `NC(=O)Cn1c(=O)cc(NC2CCN(S(=O)(=O)C(F)(F)F)CC2)c2cc(C(c3ccc(Cl)cc3)c3ccc(Cl)cc3)ccc21` [Compound #90, 2-(6-(bis(4-chlorophenyl)methyl)-2-oxo-4-((1-((trifluoromethyl)sulfonyl)piperidin-4-yl)amino)quinolin-1 (2H)-yl)acetamide] belongs more than 10000 nM.
